From patent US11319300B2, “Polyfluoro-substituted aromatic heterocyclic derivative, pharmaceutical composition containing same, and applications thereof” (ZHEJIANG UNIVERSITY, priority 2017, dated 2022) come the findings set out here.

One data set has as its target T1, hERG potassium channel (Homo sapiens, UniProt Q12809).
T1 construct: host or cells: CHO
Kind of data set: hERG potassium channel inhibition, manual whole-cell patch clamp in CHO hERG cells. Conditions: 3 μM, CHO hERG cells, patch clamp. Type of data set: cell-based. The procedure:
A Sixty-Third Embodiment: hERG Potassium Channel Inhibition Activity Experiment
The cells used in this assay were CHO cell lines transfected with hERG cDNA and stably expressing the hERG channel (supplied by Sophion Bioscience, Denmark). The cells were cultured in medium containing the following components (all from Invitrogen): Ham's F12 medium, 10% (v/v) inactivated fetal bovine serum, 100 μg/ml hygromycin B, and 100 μg/ml Geneticin. 2.1.2CHO hERG cells were grown in a Petri dish containing the above culture solution, and cultured in an incubator containing 5% of CO2 at 37° C. 24 to 48 hours prior to electrophysiological experiments, CHO hERG cells were transferred to circular glass slides placed in petri dishes and grown under the same culture and culture conditions as above. The density of CHO hERG cells on each circular slide requires that most cells achieve independent, individual requirements.
2. Compound Treatment and Dilution
To obtain the IC50 of the compound, we selecte the following concentrations (30, 10, 3, 1, 0.3, and 0.1 μM) for testing. Prior to testing, the […] were first diluted to 10, 3, 1, 0.3, and 0.1 mM stock solution in gradual dilution with DMSO and then diluted to the final μM test concentration with extracellular fluid. The final concentration of DMSO in each of the other compound solutions was 0.1% except that the DMSO concentration in the 30 μM compound test solution was 0.3%. The positive control Cisapride (cishabili) was tested at a concentration of 0.1 μM. All compound solutions were sonicated and shaken for 5 to 10 minutes to ensure complete dissolution of the compound.
3. Electrophysiological Recording System and Data Analysis
This experiment uses a manual patch clamp system (HEKA EPC-10 signal amplifier and digital conversion system, purchased from HEKA Electronics, Germany) for the recording of whole cell currents. Round slide with CHO hERG cells on the surface was placed in an electrophysiology recording cell under an inverted microscope. The extracellular fluid was continuously perfused in the recording tank (about 1 ml per minute). The experimental procedure uses conventional whole-cell patch clamp current recording techniques. Unless otherwise stated, the experiments were carried out at regular room temperature (˜25° C.). The cells were clamped at a voltage of −80 mV. The cell clamp voltage was depolarized to +20 mV to activate the hERG potassium channel, and after 5 seconds it was clamped to −50 mV to eliminate inactivation and generate tail current. The tail current peak was used as the value of the hERG current magnitude. After the hERG potassium current recorded in the above step was stabilized under the continuous extracellular fluid perfusion in the recording tank, the drug to be tested can be superimposed and filled until the inhibitory effect of the drug on the hERG current reaches a steady state. Generally, the recent three consecutive current recording lines were recombined as a criterion for judging whether or not the state is stable. After reaching a steady state, extracellular fluid perfusion rinse until hERG current returns to the size before adding drug. One cell can test one or more drugs, or multiple concentrations of the same drug, but need to be flushed with extracellular fluid between different drugs. Cisapride (cisapride, purchased from Sigma) was used in the experiment as a positive control to ensure that the cells used were of normal quality. The test data was analysed by HEKA Patchmaster, Microsoft Excel and data analysis software provided by Graphpad Prism.

Data set [1] has as its system human gastric cancer HGC27 nude mice xenografts. Kind of data set: In vivo antitumour activity, human gastric cancer HGC27 nude mice xenografts. Conditions: HGC27 xenograft, 50 mg/kg intragastric once a day; for Tumour volume D1: D1 (start). The method, then:
A Sixty-Fifth Embodiment: In Vivo Antitumour Activity of Compounds
1) Establishment of a nude mouse xenograft model: 1×10^7 test tumour cells were injected into the armpit of nude mice, after three generations, HGC27 mouse tumour blocks were dissected and placed in a glass dish containing physiological saline, after the necrotic area was removed by incision, the tumour mass was cut into 1-2 mm^3 and inserted into the left axilla of the nude mouse with a trocar.
2) Animal grouping and drug delivery arrangements: after the tumour grows to an average volume of 100-300 mm^3, 20 mice were randomly grouped according to the tumour volume, and the above test animals were given the corresponding test substances by intragastric administration at a dose of 10 mL/kg with once a day.
3) Data measurement and statistics: The tumour volume was weighed and measured twice and dosing period was 21 days. On the 22nd day, after the body weight was weighed and the tumour volume was measured, the nude mice were sacrificed and the tumours were weighed to calculate the relative tumour volume (RTV), relative tumour growth rate (T/C) and tumour inhibition percentage (IR) for statistical testing. The calculation formula was as follows: (a) TV (tumour volume)=½×a×b^2, wherein a and b represent the length and width of the tumour respectively, (b) RTV (relative tumour volume)=Vt/V0, Where V0 is the tumour volume measured at the time of group administration (i.e. d0), Vt is the tumour volume at each measurement, (c) T/C (%)=TRTV/CRTV×100%, wherein TRTV is the RTV of treatment group, CRTV is the RTV of the solvent control group, (d) IR (%)=(1−TWt/TWc)×100%, wherein TWt is the tumour weight of the treatment group, and TWc is the tumour weight of the solvent control group.
Background: A xenograft is tissue or cells of one species grown in another, often human tumour cells in immunodeficient mice.

Another data set has as its system 786-O. The data set is described as follows: Tumour cell proliferation inhibition, MTT assay, 786-O. The class given is cell-based, human.
A further data set relates to MCF-7. Kind of data set: Tumour cell proliferation inhibition, MTT assay, MCF-7. The class given is cell-based, human. (Tetrazolium dyes change colour on reduction, which living cells bring about.)
The next data set deals with HGC27. The data set is described as follows: Tumour cell proliferation inhibition, MTT assay, HGC27. The class given is cell-based, human.
In another data set the test system is HCT-116. Kind of data set: Tumour cell proliferation inhibition, MTT assay, HCT-116. The class given is cell-based, human. The procedure: (§1) Compound AZD5363 (NCT02208375, NCT02208375, NCT01625286), which have entered the clinical phase II study, was used as a positive control, and the compound was assayed against common tumour cell lines (human ovarian cancer cell line OVCAR-8 and human colon cancer cell line HCT-116) by MTT assay, at the same time, the akt1 enzyme inhibitory activity (IC50) was evaluated using a commercial Akt1 kit.
1) The pharmacological test method for the tumour cell proliferation inhibiting activity of the compound of the present invention was as follows:
The first was the determination of in vitro tumour growth inhibitory activity and the preliminary structure-activity relationship study, and different solid tumour cell lines were used to determine the in vitro antitumour activity of the synthesized compounds.
Experimental materials: cell lines: human ovarian cancer cells (OVCAR8), colon adenocarcinoma cells (HCT-116),
Medium: OVCAR8: RPMI 1640+fetal calf serum
Drug preparation method: dissolving the drug in DMSO to make a 50 mM of stock solution, and diluting it to a certain ratio to obtain 5 different concentrations.
Tumour Cells being Cultured In Vitro:
The selected tumour cells were incubated in a, 5% of CO2 cell incubator at 37° C., and passaged until the cell density was 70 to 90% (the adherent cells were passaged with Duck's EDTA) and used for subsequent experiments.
The compound was dissolved in dimethyl sulfoxide (DMSO), diluted, and tumour cells were seeded into 4000 cells/200 μL/well in 96-well plates, and 1 μL of compound was added to each well to a final concentration of 50 μM, 10 μM, 2 μM, and 0.4 μM. 0.08 μM were incubated in a, 5% of CO2 cell incubator at 37° C. for 72 hours with DMSO (1%) as a blank control.
The calculation formula of the cell inhibition rate is: cell inhibition rate %=(control group OD value−drug group OD value)/control cell OD value×100%, and the half inhibition concentration (IC50) was determined by the Bliss method.

Another data set concerns CEM-C1. The data set is described as follows: Tumour cell proliferation inhibition, MTT assay, CEM-C1. The class given is cell-based, human.
A short description of data set [2]: Oral pharmacokinetic experiment in SD rats. Type of data set: in vivo. Conditions: oral administration, 20 mg/kg, mean n = 3. The procedure: […] The blood sampling times of the tail vein administered by intragastric administration were 0.25, 0.5, 1, 2, 4, 6, 8, 10, 24 hours; the times of blood collection by intravenous administration were 0.05, 0.1, 0.17, 0.5, 1, 2, 4, 6, 8, 10, 24 hours. 0.3 ml of whole blood was taken, and after centrifugation, 0.1 ml of plasma was taken and analysed by LC-MS.

The target in the next data set is T2, AKT1/PKBα (Homo sapiens, UniProt P31749).
T2 construct: purchased
T2 sequence (P31749 whole entry): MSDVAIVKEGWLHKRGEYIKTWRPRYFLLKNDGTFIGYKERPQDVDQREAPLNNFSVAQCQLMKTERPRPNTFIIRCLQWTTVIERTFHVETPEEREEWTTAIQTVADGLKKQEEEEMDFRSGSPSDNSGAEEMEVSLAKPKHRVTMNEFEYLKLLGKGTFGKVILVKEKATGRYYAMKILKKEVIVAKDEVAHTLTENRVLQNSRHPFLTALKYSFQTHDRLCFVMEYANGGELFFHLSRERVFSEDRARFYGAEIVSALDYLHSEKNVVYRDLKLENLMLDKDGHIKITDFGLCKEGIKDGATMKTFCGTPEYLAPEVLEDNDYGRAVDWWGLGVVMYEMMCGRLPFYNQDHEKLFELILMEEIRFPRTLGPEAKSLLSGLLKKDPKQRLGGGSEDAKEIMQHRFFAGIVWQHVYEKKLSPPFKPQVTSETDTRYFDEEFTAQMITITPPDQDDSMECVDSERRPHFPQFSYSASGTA
Kind of data set: Akt1 enzyme inhibitory activity, AKT1/PKBα KinEASE FP Fluorescein Green Assay. Type of data set: biochemical. Conditions: fluorescence polarization kit assay; read-out: Akt1 IC50 (grade). The procedure:
as §1
2) Test method for the inhibitory activity of the compound of the present invention against Akt1 enzyme:
The AKT1/PKBα KinEASE™ FP Fluorescein Green Assay (Kinase Green Fluorescence Detection System) was used to detect the inhibitory activity of the compound on AKT1/PKBα.
Fluorescence polarization detection protein kinase B employs the principle of a competitive reaction: a fluorescently labeled phosphorylated tracer and an unlabeled phosphorylated product produced by the reaction of protein kinase B will compete with the anti-serine antibody for binding. In a reaction mixture […], when a part of the fluorescent tracer binds to the antibody, it causes a higher polarization value. However, in the reaction solution mixture containing the phosphorylated product, less tracer binds to the antibody (the fluorescent tracer was replaced from the antibody) and the emitted signal was depolarized. Therefore, the change in polarization was directly related to the activity of protein kinase B in the reaction.
The compound of the present invention and the positive control AZD5363 were dissolved in dimethyl sulfoxide (DMSO) and diluted to a concentration of 50 μM. At room temperature, 0.25 μl of the compound sample and the positive control at a concentration of 50 μM were taken and added to the 384-well plate, and three parallel wells were set for each sample, and then 10 μl of STK Substrate 3, Working Solution, 5 μl AKT1/PKBα Working Solution, 10 μl ATP Working Solution were added to each sample well plate with vibrating gently and shaking for a few minutes. The reaction starts after 10 μl of ATP Working Solution was added to the well, and the reaction was timed at room temperature for 1 hour. After one hour, 5 μl of STK Stop Mix and 5 μl of STK Antibody Mix were added to each well respectively to stop the reaction. After the addition completes, it was allowed to stand at room temperature for four hours, and the polarization value of the sample was detected by the fluorescence polarization of the microplate reader (it was effective to detect its signal within 24 hours), and the inhibition rate of the compound was calculated by the polarization value, and then IC50 was calculated.
Four sets of controls were set in the experiment, namely Buffer Control Wells, Tracer Control Wells, No Enzyme Wells, and a blank dimethyl sulfoxide control. The resulting data was used to calculate the inhibition rate.
The activity of the compound was divided into three grades according to the size of the IC50 of the Akt inhibitory activity: “+++”, 1 nM<IC50<10 nM; “++”, 10 nM<IC50<50 nM; “+”, 50 nM<IC50.

Structures are written as SMILES. pIC50: −log10 of the molar value. Marks after values point to notes of the source that are not given here.

T1 sequence (Q12809 whole entry): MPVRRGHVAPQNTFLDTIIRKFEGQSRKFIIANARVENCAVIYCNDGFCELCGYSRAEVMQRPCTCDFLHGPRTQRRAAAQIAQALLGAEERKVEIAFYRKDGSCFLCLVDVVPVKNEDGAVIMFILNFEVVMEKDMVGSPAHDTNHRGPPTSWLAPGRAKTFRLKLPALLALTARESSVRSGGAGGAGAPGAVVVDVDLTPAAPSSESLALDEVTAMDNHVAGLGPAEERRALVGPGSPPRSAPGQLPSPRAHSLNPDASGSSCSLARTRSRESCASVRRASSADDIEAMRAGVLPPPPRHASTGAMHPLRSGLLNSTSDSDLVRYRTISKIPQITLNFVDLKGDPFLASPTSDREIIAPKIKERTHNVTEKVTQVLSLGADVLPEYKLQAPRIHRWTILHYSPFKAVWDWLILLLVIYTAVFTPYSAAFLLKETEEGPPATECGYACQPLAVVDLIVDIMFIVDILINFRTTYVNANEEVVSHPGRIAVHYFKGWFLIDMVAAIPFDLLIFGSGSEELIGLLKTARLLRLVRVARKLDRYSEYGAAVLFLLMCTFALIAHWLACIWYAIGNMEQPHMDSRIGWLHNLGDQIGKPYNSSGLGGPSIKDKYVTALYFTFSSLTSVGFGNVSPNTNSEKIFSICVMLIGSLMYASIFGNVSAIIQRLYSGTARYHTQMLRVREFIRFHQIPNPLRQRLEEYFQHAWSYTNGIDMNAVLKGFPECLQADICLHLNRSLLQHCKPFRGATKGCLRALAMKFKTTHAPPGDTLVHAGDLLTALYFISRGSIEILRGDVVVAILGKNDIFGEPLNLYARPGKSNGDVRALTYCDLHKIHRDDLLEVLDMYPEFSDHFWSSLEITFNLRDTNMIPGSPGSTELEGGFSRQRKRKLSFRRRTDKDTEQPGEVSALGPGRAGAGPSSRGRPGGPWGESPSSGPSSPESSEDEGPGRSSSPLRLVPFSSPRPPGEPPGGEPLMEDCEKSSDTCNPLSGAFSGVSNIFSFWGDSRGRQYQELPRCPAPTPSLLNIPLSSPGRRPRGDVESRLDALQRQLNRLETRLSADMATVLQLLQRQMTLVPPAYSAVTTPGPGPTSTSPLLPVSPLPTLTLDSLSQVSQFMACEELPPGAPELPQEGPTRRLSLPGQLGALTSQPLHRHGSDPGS

On to `Cn1ncc(Cl)c1-c1cc(C(=O)N[C@H]2CNCC[C@@H]2c2ccc(F)c(F)c2)oc1Cl` (racemic) [reference compound], for which the “hERG (Inhibition rate at 3 μM concentration)” value on hERG potassium channel is given as 62%.

Broadly, the pIC50 is the IC50 on a negative log10 scale, so that one unit is a factor of ten. Usually Cmax stands for the highest concentration seen after dosing. By Tmax is commonly meant the time at which the peak concentration occurs. On to `Cn1nccc1-c1ccc(C(=O)N[C@@H]2CNCC[C@H]2c2ccc(F)c(F)c2)c(F)c1` [VII-1a], for which, in data set [1], the RTV was 11.37 ± 3.07, the “T/C(%)” value is given as 26.95%, the “Tumour volume D1” value is 213 ± 102 mm^3 and the “Tumour volume D22” value is 1498 ± 206* mm^3. Moreover, the “hERG (Inhibition rate at 3 μM concentration)” value at hERG potassium channel is reported as 15.9%. The compound also showed a negative logarithm of the IC50 (pIC50) in the data set on 786-O (72 hours) of 6.25. This compound also showed a pIC50 with MCF-7 (72 hours) of 5.65. The compound also showed a pIC50 with HGC27 (72 hours) of 7.40. In the data set on HCT-116 (72 hours), this compound gave a negative logarithm of the IC50 (pIC50) of 5.87. In the data set with CEM-C1 (72 hours), this compound showed a pIC50 of 7.00. For the same compound, in data set [2], the “1/2” value was determined as 3.34 h, the AUC0-inf turned out to be 1500 ng·h/mL and the AUC0-t was determined as 1480 ng·h/mL. Moreover, in data set [2] (rat, plasma), the highest level (Cmax) was 132 ng/mL and the Tmax was determined as 4.17 h.

For `Cn1nccc1-c1ccc(C(=O)N[C@@H]2CNCC[C@H]2c2cc(F)c(F)c(F)c2)c(F)c1` [VII-8], the “hERG (Inhibition rate at 3 μM concentration)” value at hERG potassium channel was 11.8%. In addition, the pIC50 in the data set with 786-O (Homo sapiens, 786-0, 72 h) is 5.78; in the data set with MCF-7 (Homo sapiens, MCF7, 72 h) it was 5.73; on AKT1/PKBα, 8.00 to 9.00; in the data set with HGC27 (Homo sapiens, HGC-27, 72 h), 7.70; with HCT-116 (Homo sapiens, HCT-116, 72 h), 5.82; in the data set with CEM-C1 (Homo sapiens, CEM/C1, 72 h) it was 6.92.

Consider `Cn1nccc1-c1cc(F)c(C(=O)N[C@@H]2CNCC[C@H]2c2ccc(F)c(F)c2)cc1F` [VII-18], for which, at hERG potassium channel, the “hERG (Inhibition rate at 3 μM concentration)” value is reported as 17.6%. Further, the pIC50 in the data set on 786-O (Homo sapiens, 786-0, 72 h) is 6.26; in the data set with MCF-7 (Homo sapiens, MCF7, 72 h) it was 5.93; on AKT1/PKBα, 8.00 to 9.00; with HGC27 (Homo sapiens, HGC-27, 72 h), 7.52; in the data set with HCT-116 (Homo sapiens, HCT-116, 72 h) it was 6.00; in the data set on CEM-C1 (Homo sapiens, CEM/C1, 72 h), 7.70.

With `Cn1nccc1-c1ccc(C(=O)N[C@@H]2CNCC[C@H]2c2ccc(F)c(F)c2)cc1` [drawing 115, reference compound], in data set [1], the RTV was found to be 22.60 ± 12.41, the “T/C(%)” value came to 53.75%, the “Tumour volume D1” value was determined as 216 ± 98 mm^3 and the “Tumour volume D22” value is given as 1650 ± 720* mm^3.
